Results reported in patent US8377974B2 (Millennium Pharmaceuticals, Inc., priority 2004, dated 2013).

molecular target: T1, human plasma protein factor Xa (Homo sapiens, UniProt P00742); experiment: Factor Xa IC50 determination: cleavage of paranitroanilide substrate S-2765 in 96-well plates; assay type: biochemical; conditions: fXa 1 nM, S-2765 100 μM, Tris buffered saline pH 7.4, room temperature
T1 construct: measure proteolytic activity of the enzyme (factor Xa); purchased Haematologic Technologies (Essex Junction, Vt.); host or cells: human plasma
T1 sequence (P00742 235-488 limits assumed): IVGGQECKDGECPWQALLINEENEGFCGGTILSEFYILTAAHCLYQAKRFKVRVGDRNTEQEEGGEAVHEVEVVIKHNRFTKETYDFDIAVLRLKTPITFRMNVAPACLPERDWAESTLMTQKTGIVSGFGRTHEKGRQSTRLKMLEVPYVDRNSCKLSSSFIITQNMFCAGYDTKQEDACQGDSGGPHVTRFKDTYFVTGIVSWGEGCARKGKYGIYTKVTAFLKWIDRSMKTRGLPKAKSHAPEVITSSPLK
T1 sequence (P00742 41-179 partner limits assumed): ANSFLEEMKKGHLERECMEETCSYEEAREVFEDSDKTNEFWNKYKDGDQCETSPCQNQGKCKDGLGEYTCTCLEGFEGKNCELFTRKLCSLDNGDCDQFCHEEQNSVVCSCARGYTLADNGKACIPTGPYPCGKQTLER
Method in brief: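 Human plasma factor Xa (1 nM) preincubated 5 min at room temperature with inhibitor (0.01 nM–10 μM final) in Tris-buffered saline pH 7.4 with 5 mM CaCl2, 0.1% BSA, 5% DMSO. S-2765 at 100 μM final; hydrolysis at 405 nm over 2 min. IC50 from 4-parameter fit of initial velocities.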

SMILES	IC50 [nM]
O=C(NCC1CC(c2ccc(Nc3ccnc4cc(C(F)(F)F)ccc34)cc2)=NO1)c1ccc(Cl)s1 (stereo not shown) [Example 394, 5-Chloro-N-((3-(4-(7-(trifluoromethyl)quinolin-4-ylamino)phenyl)-4,5-dihydroisoxazol-5-yl)methyl)thiophene-2-carboxamide]	≤ 100
O=C(NCC1CC(c2ccc(Nc3ccnc4ccc(C(F)(F)F)cc34)cc2)=NO1)c1ccc(Cl)s1 (stereo not shown) [Example 395, 5-Chloro-N-((3-(4-(6-(trifluoromethyl)quinolin-4-ylamino)phenyl)-4,5-dihydroisoxazol-5-yl)methyl)thiophene-2-carboxamide]	≤ 100
O=C(NCC1CC(c2ccc(Nc3ccc4ncccc4c3)cc2)=NO1)c1ccc(Cl)s1 (stereo not shown) [Example 396, 5-Chloro-N-((3-(4-(quinolin-6-ylamino)phenyl)-4,5-dihydroisoxazol-5-yl)methyl)thiophene-2-carboxamide]	≥ 500
O=C(NCC1CC(c2ccc(C(=O)N3CC=CC3)cc2)=NO1)c1ccc(Cl)s1 (stereo not shown) [Example 397, 5-Chloro-N-((3-(4-(2,5-dihydro-1H-pyrrole-1-carbonyl)phenyl)-4,5-dihydroisoxazol-5-yl)methyl)thiophene-2-carboxamide]	≤ 100
COC[C@H]1CCCN1C(=O)c1ccc(C2=NOC(CNC(=O)c3ccc(Cl)s3)C2)cc1 (stereo partly shown) [Example 398]	100 to 500
CC(O)CNC(=O)c1ccc(C2=NOC(CNC(=O)c3ccc(Cl)s3)C2)cc1 (stereo not shown) [Example 399, N-((3-(4-((2-Hydroxypropyl)carbamoyl)phenyl)-4,5-dihydroisoxazol-5-yl)methyl)-5-chlorothiophene-2-carboxamide]	≥ 500

Results, then the compound that gave them:

IC50 [nM]	SMILES
≤ 100	Cc1cnccc1Nc1ccc(C2=NOC(CNC(=O)c3ccc(Cl)s3)C2)cc1 (stereo not shown) [Example 400, 5-Chloro-N-((3-(4-(3-methylpyridin-4-ylamino)phenyl)-4,5-dihydroisoxazol-5-yl)methyl)thiophene-2-carboxamide]
≤ 100	CCOc1cc(Nc2ccc(C3=NOC(CNC(=O)c4ccc(Cl)s4)C3)cc2)ccn1 (stereo not shown) [Example 401, 5-Chloro-N-((3-(4-(2-ethoxypyridin-4-ylamino)phenyl)-4,5-dihydroisoxazol-5-yl)methyl)thiophene-2-carboxamide]
≥ 500	O=C(NCC1CC(c2ccc(Nc3c(Cl)cncc3Cl)cc2)=NO1)c1ccc(Cl)s1 (stereo not shown) [Example 402, 5-Chloro-N-((3-(4-(3,5-dichloropyridin-4-ylamino)phenyl)-4,5-dihydroisoxazol-5-yl)methyl)thiophene-2-carboxamide]
≤ 100	O=C(NCC1CC(c2ccc(Nc3ccncc3C(F)(F)F)cc2)=NO1)c1ccc(Cl)s1 (stereo not shown) [Example 403, 5-Chloro-N-((3-(4-(3-(trifluoromethyl)pyridin-4-ylamino)phenyl)-4,5-dihydroisoxazol-5-yl)methyl)thiophene-2-carboxamide]
